Laboratory results as given in the kinase profiling compilation of Christmann-Franck et al. (2016).

What was measured:
Assay in all cases: radiometric filter-binding kinase assay
[1] = system: AKT2 (human), P31751 [S474D]
AURKB (human) = AURKB (human) (UniProt Q96GD4)
CAMKK2 (human) = CAMKK2 (human) (UniProt Q96RR4)
CHEK1 (human) = CHEK1 (human) (UniProt O14757)
CHEK2 (human) = CHEK2 (human) (UniProt O96017)
EPHB4 (human) = EPHB4 (human) (UniProt P54760)
GCK (human) = GCK (human) (UniProt Q12851)
IGF1R (human) = IGF1R (human) (UniProt P08069)
IKBKB (human) = IKBKB (human) (UniProt O14920)
MAP2K1 (human) = MAP2K1 (human) (UniProt Q02750)
MAP3K1 (human) = MAP3K1 (human) (UniProt Q13233)
MAP3K5 (human) = MAP3K5 (human) (UniProt Q99683)
MAPK1 (human) = MAPK1 (human) (UniProt P28482)
MAPK10 (human) = MAPK10 (human) (UniProt P53779)
MAPK3 (human) = MAPK3 (human) (UniProt P27361)
MAPK9 (human) = MAPK9 (human) (UniProt P45984)
MAPKAPK2 (human) = MAPKAPK2 (human) (UniProt P49137)
MARK2 (human) = MARK2 (human) (UniProt Q7KZI7)
MINK1 (human) = MINK1 (human) (UniProt Q8N4C8)
MKNK1 (human) = MKNK1 (human) (UniProt Q9BUB5)
MKNK2 (human) = MKNK2 (human) (UniProt Q9HBH9)
NEK2 (human) = NEK2 (human) (UniProt P51955)
NTRK1 (human) = NTRK1 (human) (UniProt P04629)
PHKG1 (human) = PHKG1 (human) (UniProt Q16816)
PIM2 (human) = PIM2 (human) (UniProt Q9P1W9)
PKN2 (human) = PKN2 (human) (UniProt Q16513)
PRKAA1 or PRKAA2 (rat) = details: accession and sequence are those of the human protein
PRKACA (human) = PRKACA (human) (UniProt P17612)
PRKCA (human) = PRKCA (human) (UniProt P17252)
RPS6KA1 KD1 KD2 (human) = RPS6KA1 KD1 KD2 (human) (UniProt Q15418)
SRC (human) = SRC (human) (UniProt P12931)
[2] = biological target: STK11 CAB39 STRADA (human) (UniProt Q9Y376+Q7RTN6+Q15831)
STK3 (human) = STK3 (human) (UniProt Q13188)
YES1 (human) = YES1 (human) (UniProt P07947)
MAPK15 (human) = MAPK15 (human) (UniProt Q8TD08)

Sequence of CAMKK2 (human) (Q96RR4 whole entry, looked up): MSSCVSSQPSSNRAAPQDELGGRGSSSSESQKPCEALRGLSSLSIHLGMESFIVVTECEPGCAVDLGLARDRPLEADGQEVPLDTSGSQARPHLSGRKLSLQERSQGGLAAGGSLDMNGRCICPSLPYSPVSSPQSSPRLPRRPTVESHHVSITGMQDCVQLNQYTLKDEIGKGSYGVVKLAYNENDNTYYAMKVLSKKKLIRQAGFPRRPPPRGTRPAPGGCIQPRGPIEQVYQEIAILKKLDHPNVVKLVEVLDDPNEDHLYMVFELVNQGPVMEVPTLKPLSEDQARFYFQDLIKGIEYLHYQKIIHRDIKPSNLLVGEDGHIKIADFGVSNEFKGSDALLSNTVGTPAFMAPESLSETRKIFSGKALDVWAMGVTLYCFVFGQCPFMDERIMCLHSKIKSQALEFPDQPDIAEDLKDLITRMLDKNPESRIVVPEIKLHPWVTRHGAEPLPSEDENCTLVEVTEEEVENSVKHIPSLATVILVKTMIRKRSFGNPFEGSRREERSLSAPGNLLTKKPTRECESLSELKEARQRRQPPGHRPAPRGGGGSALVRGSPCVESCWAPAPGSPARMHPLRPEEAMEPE
Sequence of MKNK1 (human) (Q9BUB5 whole entry, looked up): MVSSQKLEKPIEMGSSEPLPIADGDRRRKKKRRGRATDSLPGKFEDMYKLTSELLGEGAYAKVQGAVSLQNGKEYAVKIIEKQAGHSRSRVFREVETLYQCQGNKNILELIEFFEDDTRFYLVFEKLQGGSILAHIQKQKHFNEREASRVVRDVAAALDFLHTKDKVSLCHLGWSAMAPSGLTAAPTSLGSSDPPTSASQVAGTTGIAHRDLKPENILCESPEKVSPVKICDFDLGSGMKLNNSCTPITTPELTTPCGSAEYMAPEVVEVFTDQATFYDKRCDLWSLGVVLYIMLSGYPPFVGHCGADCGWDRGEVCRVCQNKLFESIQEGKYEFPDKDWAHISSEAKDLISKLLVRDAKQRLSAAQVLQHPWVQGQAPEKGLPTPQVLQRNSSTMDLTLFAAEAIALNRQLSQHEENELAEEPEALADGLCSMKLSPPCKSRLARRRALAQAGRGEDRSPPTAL
Sequence of MAP2K1 (human) (Q02750 whole entry, looked up): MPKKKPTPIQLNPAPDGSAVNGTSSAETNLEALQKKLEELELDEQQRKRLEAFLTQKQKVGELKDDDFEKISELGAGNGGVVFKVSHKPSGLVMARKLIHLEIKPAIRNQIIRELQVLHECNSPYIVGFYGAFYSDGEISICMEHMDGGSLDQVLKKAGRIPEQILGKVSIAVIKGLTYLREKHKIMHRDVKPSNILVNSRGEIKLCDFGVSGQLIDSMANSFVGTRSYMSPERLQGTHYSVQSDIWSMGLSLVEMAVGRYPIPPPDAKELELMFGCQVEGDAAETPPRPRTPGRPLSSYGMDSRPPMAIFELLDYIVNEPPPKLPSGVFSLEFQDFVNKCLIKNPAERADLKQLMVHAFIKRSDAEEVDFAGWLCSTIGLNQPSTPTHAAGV
Sequence of IKBKB (human) (O14920 whole entry, looked up): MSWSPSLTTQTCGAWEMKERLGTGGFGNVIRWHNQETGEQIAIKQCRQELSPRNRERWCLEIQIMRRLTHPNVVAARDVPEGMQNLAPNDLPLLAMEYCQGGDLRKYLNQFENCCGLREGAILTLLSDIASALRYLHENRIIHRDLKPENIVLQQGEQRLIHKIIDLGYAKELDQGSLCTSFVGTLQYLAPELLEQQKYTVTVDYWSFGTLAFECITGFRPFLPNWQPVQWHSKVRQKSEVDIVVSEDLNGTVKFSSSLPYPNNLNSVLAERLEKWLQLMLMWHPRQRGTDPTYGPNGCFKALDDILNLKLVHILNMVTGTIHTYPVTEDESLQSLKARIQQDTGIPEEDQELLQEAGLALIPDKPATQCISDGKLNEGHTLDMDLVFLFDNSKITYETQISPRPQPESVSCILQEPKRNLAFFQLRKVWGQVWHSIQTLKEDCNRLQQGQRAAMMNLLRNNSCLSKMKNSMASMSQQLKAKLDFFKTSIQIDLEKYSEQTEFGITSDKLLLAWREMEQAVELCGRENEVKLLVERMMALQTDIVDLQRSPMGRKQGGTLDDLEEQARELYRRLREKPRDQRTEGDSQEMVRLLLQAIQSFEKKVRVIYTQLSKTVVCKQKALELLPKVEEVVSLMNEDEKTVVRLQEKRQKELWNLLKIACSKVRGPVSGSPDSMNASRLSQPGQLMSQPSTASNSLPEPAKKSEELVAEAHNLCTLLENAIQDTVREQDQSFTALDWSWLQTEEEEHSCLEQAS
Sequence of PHKG1 (human) (Q16816 whole entry, looked up): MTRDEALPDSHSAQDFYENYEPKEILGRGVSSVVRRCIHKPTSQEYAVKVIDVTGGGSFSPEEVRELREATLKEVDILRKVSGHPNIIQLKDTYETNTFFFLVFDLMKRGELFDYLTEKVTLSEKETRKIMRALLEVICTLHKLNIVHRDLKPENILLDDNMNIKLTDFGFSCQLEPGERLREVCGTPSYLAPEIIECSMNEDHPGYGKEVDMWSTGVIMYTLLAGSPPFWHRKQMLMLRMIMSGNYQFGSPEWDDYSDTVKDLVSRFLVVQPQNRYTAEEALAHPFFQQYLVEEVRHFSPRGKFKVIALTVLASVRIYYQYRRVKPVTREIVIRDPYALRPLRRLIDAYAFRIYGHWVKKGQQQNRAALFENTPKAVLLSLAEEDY
Sequence of MINK1 (human) (Q8N4C8 whole entry, looked up): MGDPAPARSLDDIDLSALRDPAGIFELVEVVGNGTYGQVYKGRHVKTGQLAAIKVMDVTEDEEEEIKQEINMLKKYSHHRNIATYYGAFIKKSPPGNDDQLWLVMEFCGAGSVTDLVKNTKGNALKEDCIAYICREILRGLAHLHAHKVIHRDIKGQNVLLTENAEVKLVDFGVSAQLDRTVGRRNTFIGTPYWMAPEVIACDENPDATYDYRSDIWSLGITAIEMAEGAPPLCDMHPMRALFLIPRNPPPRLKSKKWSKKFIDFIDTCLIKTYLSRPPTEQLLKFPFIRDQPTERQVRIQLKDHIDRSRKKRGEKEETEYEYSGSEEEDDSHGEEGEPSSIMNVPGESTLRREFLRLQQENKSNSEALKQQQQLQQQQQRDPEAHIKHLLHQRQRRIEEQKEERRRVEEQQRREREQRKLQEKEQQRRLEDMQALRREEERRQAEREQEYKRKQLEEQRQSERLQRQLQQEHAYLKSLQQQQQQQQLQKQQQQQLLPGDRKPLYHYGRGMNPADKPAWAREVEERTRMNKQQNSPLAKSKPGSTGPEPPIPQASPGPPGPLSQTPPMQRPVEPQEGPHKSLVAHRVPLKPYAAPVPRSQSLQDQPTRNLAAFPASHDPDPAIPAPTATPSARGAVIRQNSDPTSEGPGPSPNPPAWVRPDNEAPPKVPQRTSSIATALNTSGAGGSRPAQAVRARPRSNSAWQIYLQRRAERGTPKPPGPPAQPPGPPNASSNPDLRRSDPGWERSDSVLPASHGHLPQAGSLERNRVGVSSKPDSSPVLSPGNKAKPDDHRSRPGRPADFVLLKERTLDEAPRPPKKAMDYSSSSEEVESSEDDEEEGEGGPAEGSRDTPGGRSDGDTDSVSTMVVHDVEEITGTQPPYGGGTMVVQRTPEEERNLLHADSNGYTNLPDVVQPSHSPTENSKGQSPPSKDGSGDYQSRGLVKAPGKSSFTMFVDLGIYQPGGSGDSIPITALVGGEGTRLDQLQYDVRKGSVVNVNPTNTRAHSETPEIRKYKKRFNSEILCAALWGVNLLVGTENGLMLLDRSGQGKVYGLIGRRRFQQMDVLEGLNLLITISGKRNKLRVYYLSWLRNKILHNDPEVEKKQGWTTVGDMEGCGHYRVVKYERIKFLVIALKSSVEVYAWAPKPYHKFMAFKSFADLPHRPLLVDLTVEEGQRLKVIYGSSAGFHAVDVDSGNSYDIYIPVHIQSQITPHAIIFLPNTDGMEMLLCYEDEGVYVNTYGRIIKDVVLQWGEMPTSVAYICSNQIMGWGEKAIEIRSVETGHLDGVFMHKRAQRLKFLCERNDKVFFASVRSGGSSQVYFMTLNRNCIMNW
Sequence of MAPKAPK2 (human) (P49137 whole entry, looked up): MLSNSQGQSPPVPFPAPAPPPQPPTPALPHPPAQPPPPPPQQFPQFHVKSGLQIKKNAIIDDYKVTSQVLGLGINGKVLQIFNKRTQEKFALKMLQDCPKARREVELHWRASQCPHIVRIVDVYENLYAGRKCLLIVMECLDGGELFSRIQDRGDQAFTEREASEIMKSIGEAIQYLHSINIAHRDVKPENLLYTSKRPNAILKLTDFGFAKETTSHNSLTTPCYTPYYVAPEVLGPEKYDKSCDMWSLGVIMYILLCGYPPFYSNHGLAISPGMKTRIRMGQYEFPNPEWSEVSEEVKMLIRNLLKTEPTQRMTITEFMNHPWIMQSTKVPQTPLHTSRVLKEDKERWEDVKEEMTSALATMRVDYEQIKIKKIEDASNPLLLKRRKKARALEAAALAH

## Cc1nc(-c2ccc(OCC(C)C)c(C#N)c2)sc1C(=O)O
[1]; compound 1.0 µM
  residual activity: 109%
[1]; compound 10.0 µM
  residual activity: 108%
AURKB (human); compound 1.0 µM
  residual activity: 95%
AURKB (human); compound 10.0 µM
  residual activity: 96%
CAMKK2 (human); compound 1.0 µM
  residual activity: 92%
CAMKK2 (human); compound 10.0 µM
  residual activity: 73%
CHEK1 (human); compound 1.0 µM
  residual activity: 85%
CHEK1 (human); compound 10.0 µM
  residual activity: 86%
CHEK2 (human); compound 1.0 µM
  residual activity: 101%
CHEK2 (human); compound 10.0 µM
  residual activity: 60%
EPHB4 (human); compound 1.0 µM
  residual activity: 93%
EPHB4 (human); compound 10.0 µM
  residual activity: 79%
GCK (human); compound 1.0 µM
  residual activity: 85%
GCK (human); compound 10.0 µM
  residual activity: 86%
IGF1R (human); compound 1.0 µM
  residual activity: 93%
IGF1R (human); compound 10.0 µM
  residual activity: 89%
IKBKB (human); compound 1.0 µM
  residual activity: 100%
IKBKB (human); compound 10.0 µM
  residual activity: 99%
MAP2K1 (human); compound 1.0 µM
  residual activity: 85%
MAP3K1 (human); compound 1.0 µM
  residual activity: 106%
MAP3K1 (human); compound 10.0 µM
  residual activity: 96%
MAP3K5 (human); compound 10.0 µM
  residual activity: 127%
MAPK1 (human); compound 1.0 µM
  residual activity: 105%
MAPK10 (human); compound 1.0 µM
  residual activity: 99%
MAPK10 (human); compound 10.0 µM
  residual activity: 92%
MAPK3 (human); compound 10.0 µM
  residual activity: 95%
MAPK9 (human); compound 1.0 µM
  residual activity: 90%
MAPK9 (human); compound 10.0 µM
  residual activity: 86%
MAPKAPK2 (human); compound 10.0 µM
  residual activity: 44%
MARK2 (human); compound 1.0 µM
  residual activity: 60%
MARK2 (human); compound 10.0 µM
  residual activity: 59%
MINK1 (human); compound 10.0 µM
  residual activity: 104%
MKNK1 (human); compound 1.0 µM
  residual activity: 106%
MKNK1 (human); compound 10.0 µM
  residual activity: 95%
MKNK2 (human); compound 1.0 µM
  residual activity: 105%
MKNK2 (human); compound 10.0 µM
  residual activity: 91%
NEK2 (human); compound 1.0 µM
  residual activity: 89%
NEK2 (human); compound 10.0 µM
  residual activity: 98%
NTRK1 (human); compound 1.0 µM
  residual activity: 88%
PHKG1 (human); compound 1.0 µM
  residual activity: 85%
PHKG1 (human); compound 10.0 µM
  residual activity: 83%
PIM2 (human); compound 1.0 µM
  residual activity: 110%
PIM2 (human); compound 10.0 µM
  residual activity: 88%
PKN2 (human); compound 1.0 µM
  residual activity: 120%
PRKAA1 or PRKAA2 (rat); compound 1.0 µM
  residual activity: 92%
PRKAA1 or PRKAA2 (rat); compound 10.0 µM
  residual activity: 83%
PRKACA (human); compound 1.0 µM
  residual activity: 99%
PRKACA (human); compound 10.0 µM
  residual activity: 91%
PRKCA (human); compound 1.0 µM
  residual activity: 94%
PRKCA (human); compound 10.0 µM
  residual activity: 92%
RPS6KA1 KD1 KD2 (human); compound 1.0 µM
  residual activity: 92%
RPS6KA1 KD1 KD2 (human); compound 10.0 µM
  residual activity: 84%
SRC (human); compound 1.0 µM
  residual activity: 97%
SRC (human); compound 10.0 µM
  residual activity: 78%
[2]; compound 1.0 µM
  residual activity: 86%
[2]; compound 10.0 µM
  residual activity: 85%
STK3 (human); compound 1.0 µM
  residual activity: 73%
STK3 (human); compound 10.0 µM
  residual activity: 75%
YES1 (human); compound 1.0 µM
  residual activity: 117%

## O=C(NCCCNc1nc(Nc2cccc(CN3CCOCC3)c2)ncc1C1CC1)C1CCC1
[1]; compound 0.1 µM
  residual activity: 99%
[1]; compound 1.0 µM
  residual activity: 108%
AURKB (human); compound 0.1 µM
  residual activity: 80%
AURKB (human); compound 1.0 µM
  residual activity: 54%
CAMKK2 (human); compound 0.1 µM
  residual activity: 58%
CAMKK2 (human); compound 1.0 µM
  residual activity: 21%
CHEK1 (human); compound 0.1 µM
  residual activity: 93%
CHEK1 (human); compound 1.0 µM
  residual activity: 57%
CHEK2 (human); compound 0.1 µM
  residual activity: 105%
CHEK2 (human); compound 1.0 µM
  residual activity: 72%
EPHB4 (human); compound 0.1 µM
  residual activity: 101%
EPHB4 (human); compound 1.0 µM
  residual activity: 117%
GCK (human); compound 0.1 µM
  residual activity: 77%
GCK (human); compound 1.0 µM
  residual activity: 64%
IGF1R (human); compound 0.1 µM
  residual activity: 90%
IGF1R (human); compound 1.0 µM
  residual activity: 105%
IKBKB (human); compound 0.1 µM
  residual activity: 115%
IKBKB (human); compound 1.0 µM
  residual activity: 122%
MAP2K1 (human); compound 0.1 µM
  residual activity: 92%
MAP2K1 (human); compound 1.0 µM
  residual activity: 84%
MAP3K1 (human); compound 0.1 µM
  residual activity: 115%
MAP3K1 (human); compound 1.0 µM
  residual activity: 137%
MAP3K5 (human); compound 0.1 µM
  residual activity: 105%
MAP3K5 (human); compound 1.0 µM
  residual activity: 88%
MAPK1 (human); compound 0.1 µM
  residual activity: 111%
MAPK1 (human); compound 1.0 µM
  residual activity: 110%
MAPK10 (human); compound 0.1 µM
  residual activity: 110%
MAPK10 (human); compound 1.0 µM
  residual activity: 97%
MAPK15 (human); compound 0.1 µM
  residual activity: 81%
MAPK15 (human); compound 1.0 µM
  residual activity: 34%
MAPK3 (human); compound 0.1 µM
  residual activity: 105%
MAPK3 (human); compound 1.0 µM
  residual activity: 112%
MAPK9 (human); compound 0.1 µM
  residual activity: 97%
MAPK9 (human); compound 1.0 µM
  residual activity: 106%
MAPKAPK2 (human); compound 0.1 µM
  residual activity: 106%
MAPKAPK2 (human); compound 1.0 µM
  residual activity: 114%
MARK2 (human); compound 0.1 µM
  residual activity: 27%
MARK2 (human); compound 1.0 µM
  residual activity: 10%
MINK1 (human); compound 0.1 µM
  residual activity: 123%
MINK1 (human); compound 1.0 µM
  residual activity: 103%
MKNK1 (human); compound 0.1 µM
  residual activity: 89%
MKNK1 (human); compound 1.0 µM
  residual activity: 96%
MKNK2 (human); compound 0.1 µM
  residual activity: 80%
MKNK2 (human); compound 1.0 µM
  residual activity: 50%
NEK2 (human); compound 0.1 µM
  residual activity: 107%
NEK2 (human); compound 1.0 µM
  residual activity: 97%
NTRK1 (human); compound 0.1 µM
  residual activity: 84%
NTRK1 (human); compound 1.0 µM
  residual activity: 47%
PHKG1 (human); compound 0.1 µM
  residual activity: 78%
PHKG1 (human); compound 1.0 µM
  residual activity: 28%
PIM2 (human); compound 0.1 µM
  residual activity: 94%
PIM2 (human); compound 1.0 µM
  residual activity: 85%
PKN2 (human); compound 0.1 µM
  residual activity: 87%
PKN2 (human); compound 1.0 µM
  residual activity: 66%
PRKACA (human); compound 0.1 µM
  residual activity: 90%
PRKACA (human); compound 1.0 µM
  residual activity: 100%
PRKCA (human); compound 0.1 µM
  residual activity: 79%
PRKCA (human); compound 1.0 µM
  residual activity: 93%
RPS6KA1 KD1 KD2 (human); compound 0.1 µM
  residual activity: 73%
RPS6KA1 KD1 KD2 (human); compound 1.0 µM
  residual activity: 34%
SRC (human); compound 0.1 µM
  residual activity: 88%
SRC (human); compound 1.0 µM
  residual activity: 70%
[2]; compound 0.1 µM
  residual activity: 109%
[2]; compound 1.0 µM
  residual activity: 118%
STK3 (human); compound 0.1 µM
  residual activity: 110%
STK3 (human); compound 1.0 µM
  residual activity: 129%
YES1 (human); compound 0.1 µM
  residual activity: 113%
YES1 (human); compound 1.0 µM
  residual activity: 71%
